Reference: US20180200257A1, “METHODS FOR THE TREATMENT OF INFLAMMATORY DISORDERS” (Galapagos NV, priority 2015, published 2018)

Columns and labels:
[1] = tested on: subjects with moderately to severely active RA who have an inadequate response to methotrexate (MTX); experiment: Study 2 (monotherapy) - DAS28(CRP) scores; type: in vivo, human
Source text: Randomized, double-blind, placebo-controlled, multicenter, phase IIb dose finding study of Compound 1 (dosed as a [Compound 1:HCl:3H2O]) administered for 24 weeks as monotherapy to subjects with moderately to severely active rheumatoid arthritis who have an inadequate response to methotrexate alone
Double-blind, placebo-controlled, monotherapy study in subjects with moderately to severely active RA who have an inadequate response to methotrexate (MTX) (oral or parenteral).
280 subjects randomized to one of 3 doses of Compound 1 (dosed as a [Compound 1:HCl:3H2O]) or to placebo, given once daily (q.d.).
Twelve weeks of treatment with Compound 1 (dosed as a [Compound 1:HCl:3H2O]) at 50 mg, 100 mg, or 200 mg q.d.; or placebo. At Week 12, all subjects on placebo and the subjects on the 50 mg dose who have not achieved 20% improvement in swollen joint count (SJC66) and tender joint count (TJC68) will be assigned to 100 mg q.d. in a blinded fashion and will continue treatment until Week 24. Subjects in the other groups will maintain their randomized treatment until Week 24.
The (DAS28(CRP)) is a system developed and validated by the European League Against Rheumatism (EULAR) to measure the progress and improvement of rheumatoid arthritis and has been extensively validated (Wells et al., 2008). The DAS28(CRP) scoring includes a 28 tender and swollen joint count, CRP measurement from blood analysis, and a general health assessment on a visual analog scale (Fransen et al., 2003).
DAS28(CRP) values range from 2.0 to 10.0, and more particularly reflect the following status: • Remission: DAS28(CRP) ≤2.6 • Low Disease activity: 2.6 <DAS28(CRP) ≤3.2 • Moderate Disease Activity: 3.2 <DAS28(CRP) ≤5.1 • High Disease Activity: DAS28(CRP) >5.1
In practice, the DAS28(CRP) measurement involves the evaluation 28 different joints including in the measurement (proximal interphalangeal joints (10 joints), metacarpophalangeal joints (10), wrists (2), elbows (2), shoulders (2), and knees (2)). When looking at these joints, both the number of joints with tenderness upon touching and swelling are counted.
Secondly, C-reactive protein level is measured.
Finally, the patient makes a subjective assessment of disease activity during the preceding 7 days on a scale between 0 and 100, where 0 is “no activity” and 100 is “highest activity possible”.
The DAS28(CRP) score is then calculated as follows:
Firstly, the patient is asked to make a vertical mark on a 100 mm Visual Analog Scale (VAS) corresponding to their general health or global disease activity on a touch screen to measure the VAS value, which is used in the formula below.
Secondly, a swollen and tender joint examination is then performed on the patient. The swollen and tender joints are recorded. From this examination are obtained the total amount of swollen joints (SJC) and the total amount of tender joints (TJC), which are used in the formula below.
Thirdly, C-reactive protein (CRP) levels are measured.
Finally, the values obtained above (VAS, TJC28, SJC28, and CRP) are computed into the following Formula to obtain the DAS28(CRP) score.
DAS28(CRP)=0.56*√{square root over (TJC28)}+0.28√{square root over (SJC28)}+[…] ln(CRP+1)+0.014*VAS
The improvement (decreases) in the DAS28(CRP) scores for each patient group at weeks 1, 2, 4, 8 and 12 is shown in Table LXXXVII and Table LXXXVIII below, together with the Hommel-corrected p-value for the pairwise comparisons of each group with placebo.
The number of subjects (N) provided in each groups corresponds to the number of subjects starting the study in each group, and the DAS28 (CRP) data reported below corresponds to the responding subjects continuing for the entire 24 weeks on their initial treatment course.

[2] = tested on: Subjects With Active Crohn's Disease With Evidence of Mucosal Ulceration; experiment: Study 3 - CDAI component PRO2 score; type: in vivo, human; conditions: 200 mg
Source text: Double-Blind, Randomized, Placebo-Controlled, Multi-Centre Study to Investigate the Efficacy and Safety of Compound 1 in Subjects With Active Crohn's Disease With Evidence of Mucosal Ulceration. This is a double-blind, randomized, placebo-controlled, multi-centre Phase 2 study to investigate the efficacy and safety of Compound 1 administered once daily for the treatment of active CD with evidence of mucosal ulceration. The pharmacokinetics (including a PK substudy) and pharmacodynamics of Compound 1 and metabolite in CD will also be characterised. A total of 180 eligible subjects will be randomized to receive Compound 1 or placebo in addition to their stable background treatment (eg, corticosteroids, aminosalicylates, or CD-related antibiotics). The study will consist of 2 parts, with total treatment duration of 20 weeks. Randomization in Part 1 will be stratified according the subject's previous anti-TNF exposure/response, CRP level at Screening, and oral corticosteroid use at visit Day −1. After the first 10 weeks of treatment in Part 1, patients will be re-randomized for Part 2 as shown in the diagram below and will be stratified according to the subject's clinical response, previous anti-TNF exposure/response, and oral corticosteroid use at visit Day -1. [table] Within the CDAI score measurement parameters, the PRO2 score, based on the stool frequency (SF) and abdominal pain (AP) components of the CDAI, was also measured. The PRO2 score is calculated as follows: PRO2=7 x (mean daily number of liquid or very soft stools)+7×(mean daily abdominal pain score). This score provides a measurement of the symptoms improvement of the patient.

In the case of `O=C(Nc1nc2cccc(-c3ccc(CN4CCS(=O)(=O)CC4)cc3)n2n1)C1CC1` [Compound 1, cyclopropanecarboxylic acid {5-[4-(1,1-dioxo-thiomorpholin-4-ylmethyl)-phenyl]-[1,2,4]triazolo[1,5-a]pyridin-2-yl}-amide], the “DAS28(CRP) mean CFB (LOCF)” value ([1]; 50 mg q.d., week 1, 12 weeks results) is reported as −0.70, the “DAS28(CRP) mean CFB (LOCF)” value ([1]; 50 mg q.d., week 2, 12 weeks results) is reported as −0.97 and the “DAS28(CRP) mean CFB (LOCF)” value ([1]; 50 mg q.d., week 2, 24 weeks results) is reported as −1.03. The “DAS28(CRP) mean CFB (LOCF)” value ([1]; 50 mg q.d., week 4, 12 weeks results) was −1.37, the “DAS28(CRP) mean CFB (LOCF)” value ([1]; 50 mg q.d., week 4, 24 weeks results) was −1.43 and the “DAS28(CRP) mean CFB (LOCF)” value ([1]; 50 mg q.d., week 12, 12 weeks results) was −1.69. For the same compound, the “% patients reaching low disease activity and/or remission at week 12 (LOCF)” value ([1]; 50 mg q.d., 12 weeks results) was 24%, the “% patients reaching low disease activity at week 12 (LOCF)” value ([1]; 50 mg q.d., 12 weeks results) was 13% and the “% patients reaching remission at week 12 (LOCF)” value ([1]; 50 mg q.d., 12 weeks results) was 11%. The “% patients reaching low disease activity and/or remission at week 24 (LOCF)” value ([1]; 50 mg q.d., 24 weeks results) was 36%, the “% patients reaching low disease activity at week 24 (LOCF)” value ([1]; 50 mg q.d., 24 weeks results) was 17% and the “% patients reaching remission at week 24 (LOCF)” value ([1]; 50 mg q.d., 24 weeks results) was 19%. For the same compound, the “DAS28(CRP) mean CFB (LOCF)” value ([1]; 50 mg q.d., week 8, 12 weeks results) was −1.65, the “DAS28(CRP) mean CFB (LOCF)” value ([1]; 50 mg q.d., week 8, 24 weeks results) was −1.71 and the “DAS28(CRP) mean CFB (LOCF)” value ([1]; 100 mg q.d., week 1, 12 weeks results) was −0.88. For the same compound, the “DAS28(CRP) mean CFB (LOCF)” value ([1]; 100 mg q.d., week 2, 12 weeks results) was −1.04, the “DAS28(CRP) mean CFB (LOCF)” value ([1]; 100 mg q.d., week 2, 24 weeks results) was −1.04 and the “DAS28(CRP) mean CFB (LOCF)” value ([1]; 100 mg q.d., week 4, 12 weeks results) was −1.50. For the same compound, the “DAS28(CRP) mean CFB (LOCF)” value ([1]; 100 mg q.d., week 4, 24 weeks results) was −1.48, the “DAS28(CRP) mean CFB (LOCF)” value ([1]; 100 mg q.d., week 12, 12 weeks results) was −2.04 and the “% patients reaching low disease activity and/or remission at week 12 (LOCF)” value ([1]; 100 mg q.d., 12 weeks results) was 28%. For the same compound, the “% patients reaching low disease activity at week 12 (LOCF)” value ([1]; 100 mg q.d., 12 weeks results) was 13%, the “% patients reaching remission at week 12 (LOCF)” value ([1]; 100 mg q.d., 12 weeks results) was 14% and the “% patients reaching low disease activity and/or remission at week 24 (LOCF)” value ([1]; 100 mg q.d., 24 weeks results) was 50%. For the same compound, the “% patients reaching low disease activity at week 24 (LOCF)” value ([1]; 100 mg q.d., 24 weeks results) was 29%, the “% patients reaching remission at week 24 (LOCF)” value ([1]; 100 mg q.d., 24 weeks results) was 21% and the “DAS28(CRP) mean CFB (LOCF)” value ([1]; 100 mg q.d., week 8, 12 weeks results) was −1.91. For the same compound, the “DAS28(CRP) mean CFB (LOCF)” value ([1]; 200 mg q.d., week 1, 12 weeks results) was −1.15, the “DAS28(CRP) mean CFB (LOCF)” value ([1]; 200 mg q.d., week 2, 12 weeks results) was −1.54 and the “DAS28(CRP) mean CFB (LOCF)” value ([1]; 200 mg q.d., week 2, 24 weeks results) was −1.55. The “DAS28(CRP) mean CFB (LOCF)” value ([1]; 200 mg q.d., week 4, 12 weeks results) was −1.87, the “DAS28(CRP) mean CFB (LOCF)” value ([1]; 200 mg q.d., week 4, 24 weeks results) was −1.87 and the “DAS28(CRP) mean CFB (LOCF)” value ([1]; 200 mg q.d., week 12, 12 weeks results) was −2.33. The “% patients reaching low disease activity and/or remission at week 12 (LOCF)” value ([1]; 200 mg q.d., 12 weeks results) was 45%, the “% patients reaching low disease activity at week 12 (LOCF)” value ([1]; 200 mg q.d., 12 weeks results) was 28% and the “% patients reaching remission at week 12 (LOCF)” value ([1]; 200 mg q.d., 12 weeks results) was 17%. The “% patients reaching low disease activity and/or remission at week 24 (LOCF)” value ([1]; 200 mg q.d., 24 weeks results) was 46%, the “% patients reaching low disease activity at week 24 (LOCF)” value ([1]; 200 mg q.d., 24 weeks results) was 19% and the “% patients reaching remission at week 24 (LOCF)” value ([1]; 200 mg q.d., 24 weeks results) was 28%. For the same compound, the “DAS28(CRP) mean CFB (LOCF)” value ([1]; 200 mg q.d., week 8, 12 weeks results) was −2.24, the “PRO2 mean, baseline” value ([2]; Baseline, LOCF) was 52.4 and the “PRO2 mean CFB, W 10” value ([2]; week 10, LOCF) was −21.9. For the same compound, the “PRO2 remission (PRO2 ≤ 28)” value ([2]; week 10, LOCF) was 55%, the “PRO2 response (mean daily number of liquid or very soft stools ≤ 3, mean daily abdominal pain ≤ 1)” value ([2]; week 10, LOCF) was 38% and the “PRO2 remission (PRO2 ≤ 28)” value ([2]; week 10, NRI) was 50%. The “PRO2 response (mean daily number of liquid or very soft stools ≤ 3, mean daily abdominal pain ≤ 1)” value ([2]; week 10, NRI) was 34%.
